Values of other authors, collected in patent US20240050950A1, “GRADIENT-BASED MICROFLUIDIC CIRCUIT, DEVICE, AND METHOD FOR PERFORMING AN ASSAY” (priority 2020, published 2024).
Structures can show the parent of a compound that is named as a salt. Square brackets hold non-standard residues; d marks the D form. Peptide text beside a SMILES is read from it. * marks the point of attachment. dPhe(4-NHCONH2) = NC(=O)Nc1ccc(C[C@@H](N)C(=O)O)cc1; Dihydroorotyl(S) = O=C1C[C@@H](C(=O)*)NC(=O)N1; dPhe(4-Cl) = N[C@H](Cc1ccc(Cl)cc1)C(=O)O; Phe(4-NH2) = Nc1ccc(C[C@H](N)C(=O)O)cc1; d2Nal = N[C@H](Cc1ccc2ccccc2c1)C(=O)O; Lys(iPr) = CC(C)NCCCC[C@H](N)C(=O)O; d3Pal = N[C@H](Cc1cccnc1)C(=O)O

Conditions: Table 1, antimicrobial agents/drugs; cited from earlier work

Row | SMILES | Molar volume
1 | N[C@@H](C(=O)N[C@@H]1C(=O)N2C(C(=O)O)=C(Cl)CS[C@H]12)c1ccccc1 [Cefaclor] | 226.4 ± 5.0 cm^3
2 | CC1=C(C(=O)O)N2C(=O)[C@@H](NC(=O)[C@H](N)c3ccccc3)[C@H]2SC1 [Cefalexin] | 231.3 ± 5.0 cm^3
3 | CO[C@@]1(NC(=O)CSCC#N)C(=O)N2C(C(=O)O)=C(CSc3nnnn3C)CS[C@@H]21 [Cefmetazole] | 268.3 ± 7.0 cm^3
4 | NC(=O)c1cc[n+](CC2=C(C(=O)O)N3C(=O)[C@@H](NC(=O)[C@@H](c4ccccc4)S(=O)(=O)[O-])[C@H]3SC2)cc1 [Cefsulodin (Ulfaret), Cefsulodin] | 316.5 ± 7.0 cm^3
5 | CC(C)(O/N=C(\C(=O)N[C@@H]1C(=O)N2C(C(=O)[O-])=C(C[n+]3ccccc3)CS[C@H]12)c1csc(N)n1)C(=O)O [Ceftazidime] | 330.2 ± 7.0 cm^3
6 | CO/N=C(\C(=O)N[C@@H]1C(=O)N2C(C(=O)O)=C(CSc3nc(=O)c(=O)[nH]n3C)CS[C@H]12)c1csc(N)n1 [Ceftriaxone] | 281.7 ± 7.0 cm^3
7 | C/C=C(\C)C(=O)N[C@@H](c1ccccc1)[C@@H](O)C(=O)O[C@H]1C[C@@]2(O)[C@@H](OC(=O)c3ccccc3)[C@@H]3[C@]4(OC(C)=O)CO[C@@H]4C[C@H](O)[C@@]3(C)C(=O)[C@H](OC(C)=O)C(=C1C)C2(C)C [Cephalomannine (NSC 318735), Cephalomannine] | 609.9 ± 5.0 cm^3
8 | CC(=O)OCC1=C(C(=O)O)N2C(=O)[C@@H](NC(=O)Cc3cccs3)[C@H]2SC1 [Cephalothin (Cefalotin), Cephalothin] | 252.7 ± 5.0 cm^3
9 | CC1=C(C(=O)O)N2C(=O)[C@@H](NC(=O)[C@H](N)C3=CCC=CC3)[C@H]2SC1 [Cephradine (Cefradine), Cephradine] | 237.2 ± 5.0 cm^3
10 | C/C=C/C/C=C/CCC(=O)[C@H]1O[C@H]1C(N)=O [Cerulenin] | 196.7 ± 3.0 cm^3
11 | [H]/N=C(\N/C(=N/[H])NCCCCCCNC(=N)NC(=N)Nc1ccc(Cl)cc1)Nc1ccc(Cl)cc1 [Chlorhexidine] | 363.3 ± 7.0 cm^3
12 | CO[C@@H]1[C@H](O)C[C@@H](O[C@@H]2C[C@H](Oc3cc4cc5c(c(O)c4c(O)c3C)C(=O)[C@@H](O[C@H]3C[C@@H](O[C@H]4C[C@@H](O[C@H]6C[C@](C)(O)[C@@H](OC(C)=O)[C@H](C)O6)[C@H](O)[C@@H](C)O4)[C@H](O)[C@@H](C)O3)[C@H]([C@H](OC)C(=O)[C@@H](O)[C@@H](C)O)C5)O[C@H](C)[C@@H]2OC(C)=O)O[C@@H]1C [Chromomycin A3] | 827.2 ± 5.0 cm^3
13 | C=Cc1cc(OC)c2c(c1)c(=O)oc1c2cc(OC)c2c(O)ccc([C@H]3O[C@@H](C)[C@@H](O)[C@](C)(O)[C@@H]3O)c21 [Chrysomycin A (MFCD07370133), Chrysomycin A] | 361.7 ± 3.0 cm^3
14 | COc1cc2c(oc(=O)c3cc(C)cc(OC)c32)c2c([C@@H]3O[C@H](C)[C@H](O)[C@@](C)(O)[C@H]3O)ccc(O)c12 [Chrysomycin B (MFCD07370132), Chrysomycin B] | 352.0 ± 3.0 cm^3
15 | CC[C@H]1OC(=O)[C@H](C)[C@@H](O[C@H]2C[C@@](C)(OC)[C@@H](O)[C@H](C)O2)[C@H](C)[C@@H](O[C@@H]2O[C@H](C)C[C@H](N(C)C)[C@H]2O)[C@](C)(OC)C[C@@H](C)C(=O)[C@H](C)[C@@H](O)[C@]1(C)O [Clarithromycin] | 631.9 ± 5.0 cm^3
16 | CC(C)/N=c1\cc2n(-c3ccc(Cl)cc3)c3ccccc3nc-2cc1Nc1ccc(Cl)cc1 [Clofazimine] | 366.0 ± 7.0 cm^3
17 | Clc1ccccc1C(c1ccccc1)(c1ccccc1)n1ccnc1 [Clotrimazole] | 302.7 ± 7.0 cm^3

Row | SMILES | Molar volume
18 | C/C=C/[C@H]1O[C@@](O)([C@@H](C)[C@H](O)[C@H](C)[C@H]2OC(=O)/C(OC)=C/C(C)=C/[C@@H](C)[C@@H](O)[C@@H](CC)[C@@H](O)[C@H](C)C/C(C)=C/C=C/[C@@H]2OC)C[C@@H](O[C@H]2C[C@@H](O)[C@H](OC(N)=O)[C@@H](C)O2)[C@@H]1C [Concanamycin A (Folimycin), Concanamycin A] | 703.1 ± 7.0 cm^3
19 | Nc1ncnc2c1ncn2[C@@H]1O[C@H](CO)C[C@H]1O [Cordycepin (3′-Deoxyadenosine), 3′-Deoxyadenosine] | 130.8 ± 7.0 cm^3
20 | CO[C@H]1[C@H](OC(=O)c2ccc(C)[nH]2)[C@H](O)[C@@H](Oc2ccc3c(O)c(NC(=O)c4c[nH]c(C(=O)Nc5c(O)c6ccc(O[C@H]7OC(C)(C)[C@@H](OC)[C@H](OC(=O)c8ccc(C)[nH]8)[C@@H]7O)c(C)c6oc5=O)c4C)c(=O)oc3c2C)OC1(C)C [Coumermycin Al, Coumermycin A1] | 718.6 ± 5.0 cm^3
21 | C=C1[C@@H](C)[C@H]2[C@H](Cc3ccccc3)NC(=O)[C@]23OC(=O)/C=C/[C@H](O)CCC[C@@H](C)C/C=C/[C@H]3[C@@H]1O [Cytochalasin B (Phomin), Cytochalasin B] | 396.8 ± 5.0 cm^3
22 | C=C1[C@@H](C)[C@H]2[C@H](Cc3ccccc3)NC(=O)[C@]23[C@H](OC(C)=O)/C=C/[C@@](C)(O)C(=O)[C@@H](C)C/C=C/[C@H]3[C@@H]1O [Cytochalasin D (Zygosporin A, 1632828), Cytochalasin D] | 410.0 ± 5.0 cm^3
23 | N[C@@H]1CONC1=O [D-Cycloserine] | 79.8 ± 3.0 cm^3
24 | CC1(C)S[C@@H]2[C@H](NC(=O)[C@H](NC(=O)N3CCNC3=O)c3ccccc3)C(=O)N2[C@H]1C(=O)O [D-α-([Imidazolidin-2-on-1-yl]carbonylamino)benzylpenicillin] | 296.6 ± 5.0 cm^3
25 | CCCCCCCCCC(=O)N[C@@H](Cc1c[nH]c2ccccc12)C(=O)N[C@H](CC(N)=O)C(=O)N[C@@H](CC(=O)O)C(=O)N[C@@H]1C(=O)NCC(=O)N[C@@H](CCCN)C(=O)N[C@@H](CC(=O)O)C(=O)N[C@H](C)C(=O)N[C@@H](CC(=O)O)C(=O)NCC(=O)N[C@H](CO)C(=O)N[C@@H]([C@H](C)CC(=O)O)C(=O)N[C@@H](CC(=O)c2ccccc2N)C(=O)O[C@@H]1C [Daptomycin] | 1110.7 ± 5.0 cm^3
26 | COc1cccc2c1C(=O)c1c(O)c3c(c(O)c1C2=O)C[C@@](O)(C(C)=O)C[C@@H]3O[C@H]1C[C@H](N)[C@H](O)[C@H](C)O1 [Daunorubicin (Daunomycin), Daunorubicin] | 339.4 ± 5.0 cm^3
27 | CN(C)[C@@H]1C(O)=C(C(N)=O)C(=O)[C@@]2(O)C(O)=C3C(=O)c4c(O)ccc(Cl)c4[C@@H](O)[C@H]3C[C@@H]12 [Demeclocycline] | 265.1 ± 5.0 cm^3
28 | Oc1ccc(Cl)cc1Cc1cc(Cl)ccc1O [Dichlorophene] | 189.5 ± 3.0 cm^3
29 | Cc1onc(-c2c(Cl)cccc2Cl)c1C(=O)N[C@@H]1C(=O)N2[C@@H]1SC(C)(C)[C@@H]2C(=O)O [Dicloxacillin] | 290.0 ± 5.0 cm^3
30 | CN1CCN(c2cc3c(cc2F)c(=O)c(C(=O)O)cn3-c2ccc(F)cc2)CC1 [Difloxacin] | 283.2 ± 3.0 cm^3
31 | CN[C@@H]1[C@H](O[C@H]2[C@H](O[C@H]3[C@H](O)[C@@H](O)[C@H](NC(=N)N)[C@@H](O)[C@@H]3NC(=N)N)O[C@@H](C)[C@]2(O)CO)O[C@@H](CO)[C@H](O)[C@H]1O [Dihydrostreptomycin] | 293.4 ± 7.0 cm^3
32 | Cc1ncc([N+](=O)[O-])n1C [Dimetridazole] | 103.4 ± 7.0 cm^3
33 | COc1cccc2c1C(=O)c1c(O)c3c(c(O)c1C2=O)C[C@@](O)(C(=O)CO)C[C@@H]3O[C@H]1C[C@H](N)[C@H](O)[C@H](C)O1 [Doxorubicin] | 336.6 ± 5.0 cm^3

Same assay, conditions: Table 2, anticancer drugs; cited from earlier work

Row | SMILES | Molar volume
34 | Cc1cc(Nc2ncc(Cl)c(Nc3ccccc3S(=O)(=O)C(C)C)n2)c(OC(C)C)cc1C1CCNCC1 [Ceritinib (Zykadia), Ceritinib] | 445.9 ± 3.0 cm^3
35 | COc1cccc2c1C(=O)c1c(O)c3c(c(O)c1C2=O)C[C@@](O)(C(C)=O)C[C@@H]3O[C@H]1C[C@H](N)[C@H](O)[C@H](C)O1 [Cerubidine (Daunorubicin Hydrochloride), Daunorubicin Hydrochloride] | 339.4 ± 5.0 cm^3
36 | O=C(O)CCCc1ccc(N(CCCl)CCCl)cc1 [Chlorambucil] | 243.6 ± 3.0 cm^3
37 | Nc1nc(Cl)nc2c1ncn2[C@H]1C[C@H](O)[C@@H](CO)O1 [Cladribine] | 140.1 ± 7.0 cm^3
38 | Nc1nc(Cl)nc2c1ncn2[C@@H]1O[C@H](CO)[C@@H](O)[C@@H]1F [Clofarabine] | 143.0 ± 7.0 cm^3
39 | O=C(c1ccc(F)c(F)c1Nc1ccc(I)cc1F)N1CC(O)([C@@H]2CCCCN2)C1 [Cobimetinib] | 311.3 ± 3.0 cm^3
40 | C[C@@H](Oc1cc(-c2cnn(C3CCNCC3)c2)cnc1N)c1c(Cl)ccc(F)c1Cl [Crizotinib (Xalkori), Crizotinib] | 305.2 ± 7.0 cm^3
41 | Nc1ccn([C@@H]2O[C@H](CO)[C@@H](O)[C@@H]2O)c(=O)n1 [Cytarabine (Tarabine PFS), Cytarabine] | 128.4 ± 7.0 cm^3
42 | CC(C)(C)c1nc(-c2cccc(NS(=O)(=O)c3c(F)cccc3F)c2F)c(-c2ccnc(N)n2)s1 [Dabrafenib (Tafinlar), Dabrafenib] | 359.8 ± 3.0 cm^3
43 | COc1cc2ncnc(Nc3ccc(F)c(Cl)c3)c2cc1NC(=O)/C=C/CN1CCCCC1 [Dacomitinib (Vizimpro), Dacomitinib] | 349.4 ± 3.0 cm^3
44 | CC(=O)N[C@H](Cc1ccc2ccccc2c1)C(=O)N[C@H](Cc1ccc(Cl)cc1)C(=O)N[C@H](Cc1cccnc1)C(=O)N[C@@H](CO)C(=O)N[C@@H](Cc1ccc(NC(=O)[C@@H]2CC(=O)NC(=O)N2)cc1)C(=O)N[C@H](Cc1ccc(NC(N)=O)cc1)C(=O)N[C@@H](CC(C)C)C(=O)N[C@@H](CCCCNC(C)C)C(=O)N1CCC[C@H]1C(=O)N[C@H](C)C(N)=O [Degarelix] (Ac-[d2Nal][dPhe(4-Cl)][d3Pal]S[Phe(4-NH2)](Dihydroorotyl(S))[dPhe(4-NHCONH2)]L[Lys(iPr)]P[dA]-NH2) | 1231.3 ± 3.0 cm^3
45 | C[C@@H](CN1CC(=O)NC(=O)C1)N1CC(=O)NC(=O)C1 [Dexrazoxane Hydrochloride] | 201.2 ± 3.0 cm^3
46 | CC(=O)O[C@@]12CO[C@@H]1C[C@H](O)[C@@]1(C)C(=O)[C@H](O)C3=C(C)[C@@H](OC(=O)[C@H](O)[C@@H](NC(=O)OC(C)(C)C)c4ccccc4)C[C@@](O)([C@@H](OC(=O)c4ccccc4)[C@H]21)C3(C)C [Docetaxel (Taxotere), Docetaxel] | 585.7 ± 5.0 cm^3
47 | COc1cccc2c1C(=O)c1c(O)c3c(c(O)c1C2=O)C[C@@](O)(C(=O)CO)C[C@@H]3O[C@H]1C[C@H](N)[C@H](O)[C@H](C)O1 [Doxorubicin] | 336.6 ± 5.0 cm^3
